Results published in patent US10517846B2, “Pharmaceutical compositions for treating acne” (Dr. Reddy's Laboratories Ltd., priority 2016, dated 2019).
Values after ≈ are worked out from the molar mass of the structure shown.

Key:
[1] = Solubility studies for isotretinoin using non-aqueous solvents; assay type: physicochemical; conditions: organic solvent or mixture
Method: Solubility studies for isotretinoin were carried out using non-aqueous solvents as mentioned in table 1.

[2] = oral; patients with severe acne; cited from earlier work
[3] = cited from earlier work

## CC1=C(/C=C/C(C)=C/C=C/C(C)=C\C(=O)O)C(C)(C)CCC1 [isotretinoin, (2Z,4E,6E,8E)-3,7-dimethyl-9-(2,6,6-trimethylcyclohex-1-en-1-yl)nona-2,4,6,8-tetraenoic acid]
[1]; solvent Acetone
  solubility: 30 mg/mL (≈ 99.9 mM)
[1]; solvent Dichloromethane
  solubility: 12 mg/mL (≈ 39.9 mM)
[1]; solvent Ethanol
  solubility: 10 mg/mL (≈ 33.3 mM)
[1]; solvent Isopropyl alcohol
  solubility: 12 mg/mL (≈ 39.9 mM)
[1]; solvent Methanol
  solubility: 10 mg/mL (≈ 33.3 mM)
[2]
  long-term remission, share of patients: about 80%
[3]
  water solubility: very low water solubility
